Experimental data as given in patent US8309730B2, “Nonsteroidal compounds useful as modulators of glucocorticoid receptor AP-1 and/or NF-kappab acitivity and use thereof” (Bristol-Myers Squibb Company, priority 2007, dated 2012).

Target: T1, human glucocorticoid receptor (Homo sapiens, UniProt P04150)
T1 construct: purified human recombinant full-length glucocorticoid receptor (2 nM); purchased Invitrogen Part #2893
T1 sequence (P04150 1-777): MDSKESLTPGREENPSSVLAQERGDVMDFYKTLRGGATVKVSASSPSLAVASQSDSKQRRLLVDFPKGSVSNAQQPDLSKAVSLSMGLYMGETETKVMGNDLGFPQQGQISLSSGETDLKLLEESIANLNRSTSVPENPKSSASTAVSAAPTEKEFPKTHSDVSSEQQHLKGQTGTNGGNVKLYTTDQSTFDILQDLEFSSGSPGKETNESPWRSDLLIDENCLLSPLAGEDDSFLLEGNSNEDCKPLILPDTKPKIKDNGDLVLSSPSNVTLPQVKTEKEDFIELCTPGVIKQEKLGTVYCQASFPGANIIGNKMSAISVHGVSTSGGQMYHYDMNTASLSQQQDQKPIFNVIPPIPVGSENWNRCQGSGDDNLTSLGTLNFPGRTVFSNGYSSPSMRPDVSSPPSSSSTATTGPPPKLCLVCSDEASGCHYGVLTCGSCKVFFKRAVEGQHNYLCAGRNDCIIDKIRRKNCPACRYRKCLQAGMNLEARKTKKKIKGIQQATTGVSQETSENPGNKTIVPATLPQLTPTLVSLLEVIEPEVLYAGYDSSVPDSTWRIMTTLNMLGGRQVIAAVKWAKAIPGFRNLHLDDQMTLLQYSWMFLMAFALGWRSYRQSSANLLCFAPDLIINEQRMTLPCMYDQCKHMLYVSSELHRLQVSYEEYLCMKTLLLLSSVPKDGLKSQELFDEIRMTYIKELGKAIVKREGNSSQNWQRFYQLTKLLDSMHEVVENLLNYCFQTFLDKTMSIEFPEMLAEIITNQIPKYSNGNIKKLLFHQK
Assay: Glucocorticoid Receptor Binding Assay (I), fluorescence polarization competitor kit
Details: purified human recombinant full-length GR, Fluormone GS Red, 2 h room temperature
Method: Briefly, purified human recombinant full-length glucocorticoid receptor (2 nM) was mixed with fluorescently labeled glucocorticoid (1 nM Fluormone GS Red) in the presence or absence of test compound. After two hours incubation at room temperature in the dark, the fluorescence polarization (FP) of the sample was measured. […] Test compounds were analyzed in the concentration range from 8.5E-05 μM to 5 μM.

SMILES	Ki [nM]
C[C@]12Cn3cnc(-c4ccc(F)cc4)c3C=C1CCC[C@@H]2[C@]1(C)OC(=N)c2ccccc21 [Example 84]	201
CC(C)(C)OC(=O)NCC[C@H]1CCCC2=Cc3c(-c4ccc(F)cc4)ncn3C[C@@]21C [Example 88]	11.4
C[C@]12Cn3cnc(-c4ccc(F)cc4)c3C=C1CCC[C@@H]2[C@@H](O)C(F)(F)F [Example 90]	103
CC(C)(O)c1ccc([C@@](C)(O)[C@H]2CCCC3=Cc4c(-c5ccc(F)cc5)ncn4C[C@@]32C)cc1 [Example 98]	4.45

The next lines start with the values.

Ki [nM]	SMILES
177	C[C@]12Cn3cnc(-c4ccc(F)cc4)c3C=C1CCC[C@@H]2[C@]1(C)OC(=O)c2ccccc21 [Example 85]
67.1	C[C@]12Cn3cnc(-c4ccc(F)cc4)c3C=C1CCC[C@@H]2CC(=O)Nc1nccs1 [Example 86]
85.5	C[C@]12Cn3cnc(-c4ccc(F)cc4)c3C=C1CCC[C@@H]2[C@H](O)C(F)(F)F [Example 91]
344	C[C@]12Cn3cnc(-c4ccc(F)cc4)c3C=C1CCC[C@@H]2C(=O)C1CCOCC1 [Example 94]
755	C=CC1(O)CCCC2=Cc3c(-c4ccc(F)cc4)ncn3CC21C (stereo not drawn) [Example 101, 1-(4-Fluorophenyl)-5a-methyl-6-vinyl-5,5a,6,7,8,9-hexahydroimidazo[1,5-b]isoquinolin-6-ol]
